Test results reported in EP3741762A1, “OXALAMIDO-SUBSTITUTED TRICYCLIC INHIBITORS OF HEPATITIS B VIRUS” (priority 2019, dated 2020).

test system: HBV; assay: Anti-HBV activity in vitro: quantification of extracellular HBV DNA by direct qPCR in HepAD38 cells; format: cell-based; conditions: Hepatitis B virus, tetracycline-free medium, 96 hours at 37°C, reported as EC50 threshold value, read-out: HBV inh EC50
Source text: HepAD38 cell line (Ladner et al., Antimicrob Agents Chemother, 1997, 41, 1715-20) was used for HBV inhibition assays. HepAD38 is a subclone, derived from Hepatoblastoma cell line HepG2 (ATCC® Number: HB-8065™), that expresses HBV genome under the transcriptional control of a tetracycline-responsive promoter in a TET-OFF system: addition of tetracycline (TET) or doxycycline suppresses HBV replication, while its removal switches on the process allowing HBV viral particles release in the cell supernatant. HepAD38 cell line is maintained in DMEM/F12, supplemented with 10% of fetal bovine serum, 1% of glutamine, 1% of penicillin/streptomycin, 0.4 mg/ml G418 and 0,3 ug/ml tetracycline. For the HBV inhibition assay, doxycycline-free medium is used in order to allow virion production.
HBV inhibition activity in vitro was performed in 96 multiwell plates. During the initial (primary) screening, compounds were first tested in triplicates at concentrations of 0.02 µM, 0.1 µM, 0.5µM and 1µM. For selected compounds, an 8-point dose-response curve was obtained using 1:2 serial dilutions (starting from 0.01µM, 0.1µM, 0.4µM or 5 µM, depending on the degree of inhibition observed during the primary screening). From the dose-response curves, half maximal effective concentration (EC50) could be calculated (see also below).
In more detail, compounds - typically dissolved in DMSO stock solutions - were diluted to 2x the final desired concentration in 100 µl of the above medium (without doxycycline) and plated in three replicates in the 96-well plates.
Simultaneously, HepAD38 cells - extensively pre-washed in tetracycline-free medium in order to induce HBV production - were suspended at 2^∗10^4 cells in 100 µl of tetracycline-free medium and added to each well of the plate, to yield a final assay volume of 200 µl DMSO - used for stock solutions and compounds dilutions - which was always present in the assays at a final concentration of 0.5%.
Plates were then incubated 96 hours at 37°C and then subjected to cell viability assays and extracellular HBV quantification, in order to evaluate both the cytotoxic potential and the antiviral activity of compounds. Cytotoxicity was assessed by a commercial fluorescence assay that measures the metabolic activity of cells, directly related to cell viability (Cell Titer Blue, Promega). Anti-HBV activity was evaluated by quantification of extracellular HBV DNA with direct qPCR. In particular, supernatant was collected and centrifuged for cell debris clarification, viral DNA was extracted from virions by addition of lysis buffer (1 mM 1,4-dithiothreitol, 0.2% sodium dodecyl sulphate) and incubated at 95°C for 10 min. Samples were then diluted 1:40 and real time PCR amplification was performed with SYBR green assay (Power SYBR™ Green PCR Master Mix-Thermo Fisher Scientific) and specific HBV primer (HBV-DF:5'-[…]-3' (SEQ ID No. 1), HBV-DR:5'-[…]-3' (SEQ ID No.2)).
Antiviral activity data for each compound are reported as EC50 threshold value (see Table 1 legend). Excel and Graphpad Prism programs are typically used for data elaboration and EC50 calculation.

Structure (SMILES)	EC50
Cn1cc2c(c1C(=O)Nc1cc(F)c(F)c(F)c1)OC[C@@H]1CN(C(=O)C(=O)NC3(C)COC3)C[C@@H]1NS2(=O)=O [Example E4, (3aR,10aR)-7-methyl-2-(2-((3-methyloxetan-3-yl)amino)-2-oxoacetyl)-N-(3,4,5-trifluorophenyl)-2,3,3a,4,10,10a-hexahydro-1H,7H-dipyrrolo[3,4-b:3',4'-f][1,4,5]oxathiazocine-8-carboxamide 5,5-dioxide]	< 500 nM
Cc1cc(NC(=O)c2c3c(cn2C)S(=O)(=O)N[C@H]2CN(C(=O)C(=O)NCC4CC4)C[C@H]2CS3)ccc1F [Example E39, (3aR,10aR)-2-(2-((cyclopropylmethyl)amino)-2-oxoacetyl)-N-(4-fluoro-3-methylphenyl)-7-methyl-2,3,3a,4,10,10a-hexahydro-1H,7H-dipyrrolo[3,4-c:3',4'-g][1,6,2]dithiazocine-8-carboxamide 5,5-dioxide]	< 500 nM
Cc1cc(NC(=O)c2c3c(cn2C)S(=O)(=O)N[C@H]2CN(C(=O)C(=O)N[C@@H](C)C(F)(F)F)C[C@H]2CO3)ccc1F [Example E15, (3aR,10aR)-N-(4-fluoro-3-methylphenyl)-7-methyl-2-(2-oxo-2-(((S)-1,1,1-trifluoropropan-2-yl)amino)acetyl)-2,3,3a,4,10,10a-hexahydro-1H,7H-dipyrrolo[3,4-b:3',4'-f][1,4,5]oxathiazocine-8-carboxamide 5,5-dioxide]	< 500 nM
Cn1cc2c(c1C(=O)Nc1cc(F)c(F)c(F)c1)OC[C@H]1CN(C(=O)C(N)=O)C[C@H]1NS2(=O)=O (relative stereo) [Example E13, cis-2-(2-amino-2-oxoacetyl)-7-methyl-N-(3,4,5-trifluorophenyl)-2,3,3a,4,10,10a-hexahydro-1H,7H-dipyrrolo[3,4-b:3',4'-f][1,4,5]oxathiazocine-8-carboxamide 5,5-dioxide]	< 500 nM
Cc1cc(NC(=O)c2c3c(cn2C)S(=O)(=O)N[C@H]2CN(C(=O)C(=O)NC4(C)COC4)C[C@H]2CO3)ccc1F [Example E3, (3aR,10aR)-N-(4-fluoro-3-methylphenyl)-7-methyl-2-(2-((3-methyloxetan-3-yl)amino)-2-oxoacetyl)-2,3,3a,4,10,10a-hexahydro-1H,7H-dipyrrolo[3,4-b:3',4'-f][1,4,5]oxathiazocine-8-carboxamide 5,5-dioxide]	< 500 nM
Cc1cc(NC(=O)c2c3c(cn2C)S(=O)(=O)N[C@H]2CN(C(=O)C(=O)NC4CC(F)(F)C4)C[C@H]2CO3)ccc1F [Example E14, (3aR,10aR)-2-(2-((3,3-difluorocyclobutyl)amino)-2-oxoacetyl)-N-(4-fluoro-3-methylphenyl)-7-methyl-2,3,3a,4,10,10a-hexahydro-1H,7H-dipyrrolo[3,4-b:3',4'-f][1,4,5]oxathiazocine-8-carboxamide 5,5-dioxide]	< 500 nM
Cc1cc(NC(=O)c2c3c(cn2C)S(=O)(=O)N[C@H]2CN(C(=O)C(=O)NCC(C)C)C[C@H]2CO3)ccc1F [Example E16, (3aR,10aR)-N-(4-fluoro-3-methylphenyl)-2-(2-(isobutylamino)-2-oxoacetyl)-7-methyl-2,3,3a,4,10,10a-hexahydro-1H,7H-dipyrrolo[3,4-b:3',4'-f][1,4,5]oxathiazocine-8-carboxamide 5,5-dioxide]	< 500 nM
Cc1cc(NC(=O)c2c3c(cn2C)S(=O)(=O)N[C@H]2CN(C(=O)C(=O)NC4(C)CC4)C[C@H]2CO3)ccc1F [Example E18, (3aR,10aR)-N-(4-fluoro-3-methylphenyl)-7-methyl-2-(2-((1-methylcyclopropyl)amino)-2-oxoacetyl)-2,3,3a,4,10,10a-hexahydro-1H,7H-dipyrrolo[3,4-b:3',4'-f][1,4,5]oxathiazocine-8-carboxamide 5,5-dioxide]	< 500 nM
Cc1cc(NC(=O)c2c3c(cn2C)S(=O)(=O)N[C@@H]2CN(C(=O)C(=O)NC4(C)COC4)C[C@@H]2CO3)ccc1F (relative stereo) [Example E2, cis-N-(4-fluoro-3-methylphenyl)-7-methyl-2-(2-((3-methyloxetan-3-yl)amino)-2-oxoacetyl)-2,3,3a,4,10,10a-hexahydro-1H,7H-dipyrrolo[3,4-b:3',4'-f][1,4,5]oxathiazocine-8-carboxamide 5,5-dioxide]	< 500 nM
Cc1cc(NC(=O)c2c3c(cn2C)S(=O)(=O)N[C@H]2CN(C(=O)C(=O)N[C@H](C)C(F)(F)F)C[C@H]2CO3)ccc1F [Example E9, (3aR,10aR)-N-(4-fluoro-3-methylphenyl)-7-methyl-2-(2-oxo-2-(((R)-1,1,1-trifluoropropan-2-yl)amino)acetyl)-2,3,3a,4,10,10a-hexahydro-1H,7H-dipyrrolo[3,4-b:3',4'-f][1,4,5]oxathiazocine-8-carboxamide 5,5-dioxide]	< 500 nM
Cc1cc(NC(=O)c2c3c(cn2C)S(=O)(=O)N[C@@H]2CN(C(=O)C(N)=O)C[C@@H]2CO3)ccc1F (relative stereo) [Example E11, cis-2-(2-amino-2-oxoacetyl)-N-(4-fluoro-3-methylphenyl)-7-methyl-2,3,3a,4,10,10a-hexahydro-1H,7H-dipyrrolo[3,4-b:3',4'-f][1,4,5]oxathiazocine-8-carboxamide 5,5-dioxide]	< 500 nM
CNC(=O)C(=O)N1C[C@H]2CSc3c(cn(C)c3C(=O)Nc3ccc(F)c(C)c3)S(=O)(=O)N[C@H]2C1 [Example E35, (3aR,10aR)-N-(4-fluoro-3-methylphenyl)-7-methyl-2-(2-(methylamino)-2-oxoacetyl)-2,3,3a,4,10,10a-hexahydro-1H,7H-dipyrrolo[3,4-c:3',4'-g][1,6,2]dithiazocine-8-carboxamide 5,5-dioxide]	< 500 nM
Cc1cc(NC(=O)c2c3c(cn2C)S(=O)(=O)N[C@@H]2CN(C(=O)C(=O)NC4CC4)C[C@H]2CO3)ccc1F (relative stereo) [Example E31, trans-2-(2-(cyclopropylamino)-2-oxoacetyl)-N-(4-fluoro-3-methylphenyl)-7-methyl-2,3,3a,4,10,10a-hexahydro-1H,7H-dipyrrolo[3,4-b:3',4'-f][1,4,5]oxathiazocine-8-carboxamide 5,5-dioxide]	< 500 nM
Cc1cc(NC(=O)c2c3c(cn2C)S(=O)(=O)N[C@H]2CN(C(=O)C(=O)N[C@@H](C)C(F)(F)F)C[C@H]2CS3)ccc1F [Example E37, (3aR,10aR)-N-(4-fluoro-3-methylphenyl)-7-methyl-2-(2-oxo-2-(((S)-1,1,1-trifluoropropan-2-yl)amino)acetyl)-2,3,3a,4,10,10a-hexahydro-1H,7H-dipyrrolo[3,4-c:3',4'-g][1,6,2]dithiazocine-8-carboxamide 5,5-dioxide]	< 500 nM
Cc1cc(NC(=O)c2c3c(cn2C)S(=O)(=O)N[C@H]2CN(C(=O)C(=O)NC4(C)CC4)C[C@H]2CS3)ccc1F [Example E40, (3aR,10aR)-N-(4-fluoro-3-methylphenyl)-7-methyl-2-(2-((1-methylcyclopropyl)amino)-2-oxoacetyl)-2,3,3a,4,10,10a-hexahydro-1H,7H-dipyrrolo[3,4-c:3',4'-g][1,6,2]dithiazocine-8-carboxamide 5,5-dioxide]	< 500 nM
Cc1cc(NC(=O)c2c3c(cn2C)S(=O)(=O)N[C@H]2CN(C(=O)C(=O)NC4(C)COC4)C[C@H]2CS3)ccc1F [Example E42, (3aR,10aR)-N-(4-fluoro-3-methylphenyl)-7-methyl-2-(2-((3-methyloxetan-3-yl)amino)-2-oxoacetyl)-2,3,3a,4,10,10a-hexahydro-1H,7H-dipyrrolo[3,4-c:3',4'-g][1,6,2]dithiazocine-8-carboxamide 5,5-dioxide]	< 500 nM
CN(C)C(=O)C(=O)N1C[C@@H]2COc3c(cn(C)c3C(=O)Nc3cc(F)c(F)c(F)c3)S(=O)(=O)N[C@@H]2C1 (relative stereo) [Example E1, cis-2-(2-(dimethylamino)-2-oxoacetyl)-7-methyl-N-(3,4,5-trifluorophenyl)-2,3,3a,4,10,10a-hexahydro-1H,7H-dipyrrolo[3,4-b:3',4'-f][1,4,5]oxathiazocine-8-carboxamide 5,5-dioxide]	< 500 nM
